Measurements: the NIST ThermoML archive (doi:10.1021/je1005483)

Key:
[1] = xn = mol fraction of the nth substance listed; conditions: 101.3 kPa, Liquid; for speed of sound: 298.15 K
[2] = molar heat capacity at constant pressure; xn = mol fraction of the nth substance listed; conditions: 298.15 K, 101.3 kPa, Liquid, Flow calorimetry

CC1COC(=O)O1 (configuration not stated) [4-methyl-1,3-dioxolan-2-one] + CC#N
Conditions	molar heat capacity at constant pressure, [2] [J/K/mol]	speed of sound, [1] [m/s]
x1 = 0.02042	93.86	–
x1 = 0.04818	95.91	–
x1 = 0.0502	–	1287.5
x1 = 0.08041	98.29	–
x1 = 0.09602	99.45	–
x1 = 0.1021	99.9	–
x1 = 0.1022	–	1296.4
x1 = 0.1298	101.95	–
x1 = 0.1438	103	–
x1 = 0.1512	–	1305.1
x1 = 0.1521	103.61	–
x1 = 0.1801	105.69	–
x1 = 0.193	106.65	–
x1 = 0.1988	107.08	–
x1 = 0.2006	–	1313.9
x1 = 0.3006	114.62	–
x1 = 0.3031	–	1331
x1 = 0.3051	–	1331.6
x1 = 0.3994	121.92	–
x1 = 0.4046	–	1351.6
x1 = 0.4507	125.72	–
x1 = 0.4508	125.72	–
x1 = 0.5067	–	1369
x1 = 0.5997	136.77	–
x1 = 0.5999	136.78	–
x1 = 0.6088	–	1386.6
x1 = 0.6973	144.05	–
x1 = 0.7035	–	1399.3
x1 = 0.7037	–	1399.4
x1 = 0.7485	147.88	–
x1 = 0.7494	147.94	–
x1 = 0.7986	–	1415.1
x1 = 0.856	–	1422.3
x1 = 0.8995	159.26	–
x1 = 0.9004	159.33	–
x1 = 0.9052	–	1427.8
x1 = 0.9518	–	1434.5
x1 = 0.9766	–	1438
x1 = 1	166.98	1443

mass density [kg/m3], [1]
Conditions	308.15 K	318.15 K
x1 = 0.00899	772.153	–
x1 = 0.00987	–	762.8
x1 = 0.01974	779.714	–
x1 = 0.02015	–	770.008
x1 = 0.02827	785.631	–
x1 = 0.03912	793.054	–
x1 = 0.04049	–	783.973
x1 = 0.04976	800.23	–
x1 = 0.04999	–	790.403
x1 = 0.05955	806.732	–
x1 = 0.05968	–	796.854
x1 = 0.06835	812.468	–
x1 = 0.06983	–	803.478
x1 = 0.07649	–	807.807
x1 = 0.08237	821.557	–
x1 = 0.09048	–	816.808
x1 = 0.09065	826.854	–
x1 = 0.09974	832.541	–
x1 = 0.1015	–	823.802
x1 = 0.1473	861.545	–
x1 = 0.1527	–	855.059
x1 = 0.2011	–	882.847
x1 = 0.2018	892.585	–
x1 = 0.2502	–	909.428
x1 = 0.2509	919.09	–
x1 = 0.2971	–	933.541
x1 = 0.2983	943.362	–
x1 = 0.4008	991.468	–
x1 = 0.4037	–	983.751
x1 = 0.4905	1029.07	–
x1 = 0.5036	–	1025.46
x1 = 0.5979	1069.65	–
x1 = 0.6004	–	1061.56
x1 = 0.6902	1101.28	–
x1 = 0.7016	–	1095.76
x1 = 0.7903	1132.31	–
x1 = 0.7997	–	1125.73
x1 = 0.9005	–	1153.94
x1 = 0.901	1163.56	–
x1 = 0.9113	–	1156.82
x1 = 0.9121	1166.51	–
x1 = 0.9218	1169.02	–
x1 = 0.9302	1171.25	–
x1 = 0.934	–	1162.75
x1 = 0.9408	–	1164.5
x1 = 0.9411	1174.08	–
x1 = 0.9504	1176.45	–
x1 = 0.9519	–	1167.38
x1 = 0.9608	–	1169.62
x1 = 0.9609	1179.12	–
x1 = 0.9707	–	1172.11
x1 = 0.9715	1181.77	–
x1 = 0.9815	1184.24	1174.79
x1 = 0.9908	–	1177.08
x1 = 1	1188.73	1179.31
